Measurements as given in US20230066011A1, “PYRROLOPYRIMIDINE DERIVATIVE, AND PHARMACEUTICAL COMPOSITION FOR PREVENTING OR TREATING PROTEIN KINASE-RELATED DISEASE COMPRISING SAME AS ACTIVE INGREDIENT” (VORONOI CO., LTD., priority 2019, published 2023).
One block for each compound: values may come before it.

Experiments:
human GST-DYRK1A = target: T1, human GST-DYRK1A (Homo sapiens, UniProt Q13627); assay: GST-DYRK1A enzyme inhibition, ADP-Glo kinase assay; assay type: biochemical; conditions: ATP 10 μM, GST-DYRK1A full length, read-out: DYRK1 IC50
T1 construct: purified human GST-DYRK1A (full length, Thermo Scientifics) enzyme; purchased Thermo Scientifics
Procedure, shortened: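 Full-length human GST-DYRK1A (10 ng) with 10 μM ATP and specific substrate in 40 mM Tris-HCl pH 7.4, 20 mM MgCl2, 0.5 mg/mL BSA, 50 μM DTT, 1 h at 25 °C. ADP formation read by ADP-Glo luminescence relative to solvent control; IC50 from three data sets.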

human GST-CLK1 = target: T2, human GST-CLK1 (Homo sapiens, UniProt P49759); assay: GST-CLK1 enzyme inhibition, ADP-Glo kinase assay; assay type: biochemical; conditions: ATP 10 μM, GST-CLK1 129-end
T2 construct: purified human GST-CLK1 (129-end, SignalChem) enzyme; purchased SignalChem
Procedure, shortened: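 Human GST-CLK1 (129-end, 3 ng) reacted with substrate and 10 μM ATP for 1 h at 25° C in 40 mM Tris-HCl pH 7.4, 20 mM MgCl2, 0.5 mg/mL BSA, 50 μM DTT. ADP-Glo luminescence was normalised to solvent control; IC50 (nM) from 3 data sets.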

T2 sequence (P49759 129-484 limits assumed): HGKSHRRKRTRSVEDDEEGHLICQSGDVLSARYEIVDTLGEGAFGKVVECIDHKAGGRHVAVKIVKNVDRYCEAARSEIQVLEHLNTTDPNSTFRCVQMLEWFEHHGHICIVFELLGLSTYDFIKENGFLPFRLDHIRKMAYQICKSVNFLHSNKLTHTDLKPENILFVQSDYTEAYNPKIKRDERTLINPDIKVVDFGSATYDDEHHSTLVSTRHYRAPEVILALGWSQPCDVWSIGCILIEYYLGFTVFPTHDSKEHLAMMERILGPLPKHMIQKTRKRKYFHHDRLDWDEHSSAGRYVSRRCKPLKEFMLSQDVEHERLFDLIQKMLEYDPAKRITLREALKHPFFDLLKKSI

SMILES: CC(C)Nc1nc(Nc2ccc(C(=O)N3CCOCC3)c3c2OCC3)nc2[nH]cc(C#N)c12 [Example 352, 4-(isopropyl-amino)-2-((4-(morpholine-4-carbonyl)-2,3-dihydro-benzofuran-7-yl)amino)-7H-pyrrolo[2,3-d]pyrimidine-5-carbonitrile]
IC50 (human GST-DYRK1A): 0.301 to 1 µM | IC50 (human GST-CLK1): < 0.1 µM

SMILES: CCCNc1nc(Nc2ccc(C(=O)N3CCOCC3)c3c2OCC3)nc2[nH]cc(C(F)(F)F)c12 [Example 445, morpholino(7-((4-(propylamino)-5-(trifluoromethyl)-7H-pyrrolo[2,3-d]pyrimidin-2-yl)amino)-2,3-dihydrobenzo-furan-4-yl)methanone]
IC50 (human GST-DYRK1A): < 0.1 µM | IC50 (human GST-CLK1): < 0.1 µM

SMILES: CC[C@H](C)Nc1nc(Nc2ccc(S(=O)(=O)N3CCOCC3)cc2OC)nc2[nH]cc(C(F)(F)F)c12 [Example 379, (S)-N^4-(sec-butyl)-N^2-(2-methoxy-4-(morpholino-sulfonyl)phenyl)-5-(trifluoromethyl)-7H-pyrrolo[2,3-d]pyrimidine-2,4-diamine]
IC50 (human GST-DYRK1A): 0.301 to 1 µM | IC50 (human GST-CLK1): 0.301 to 1 µM

SMILES: COc1cc(P2(=O)CCN(C3COC3)CC2)ccc1Nc1nc(N[C@@H]2CCOC2)c2c(C#N)c[nH]c2n1 [Example 299, (R)-2-((2-methoxy-4-(1-(oxetan-3-yl)-4-oxido-1,4-azaphosphinan-4-yl)phenyl)amino)-4-((tetrahydrofuran-3-yl)amino)-7H-pyrrolo[2,3-d]pyrimidine-5-carbonitrile]
IC50 (human GST-DYRK1A): 0.301 to 1 µM | IC50 (human GST-CLK1): 0.101 to 0.3 µM

SMILES: COc1cc(S(C)(=O)=O)ccc1Nc1nc(N[C@@H]2CCOC2)c2cc[nH]c2n1 [Example 28, (R)-N^2-(2-methoxy-4-(methylsulfonyl)phenyl)-N^4-(tetrahydrofuran-3-yl)-7H-pyrrolo[2,3-d]pyrimidine-2,4-diamine]
IC50 (human GST-DYRK1A): 0.301 to 1 µM | IC50 (human GST-CLK1): 0.301 to 1 µM

SMILES: CCNc1nc(Nc2ccc(C(=O)N3CCC(N4CCOCC4)CC3)c3c2OCCO3)nc2[nH]cc(C#N)c12 [Example 258, 4-(ethylamino)-2-((8-(4-morpholinopiperidine-1-carbonyl)-2,3-dihydrobenzo[b][1,4]dioxin-5-yl)amino)-7H-pyrrolo[2,3-d]pyrimidine-5-carbonitrile]
IC50 (human GST-DYRK1A): 0.301 to 1 µM | IC50 (human GST-CLK1): < 0.1 µM

SMILES: COc1cc(P2(=O)CCN(C3CCOCC3)CC2)ccc1Nc1nc(NC2CCCCC2)c2c(C#N)c[nH]c2n1 [Example 324, 4-(cyclo-hexylamino)-2-((2-methoxy-4-(4-oxido-1-(tetrahydro-2H-pyran-4-yl)-1,4-azaphosphinan-4-yl)phenyl)amino)-7H-pyrrolo[2,3-d]pyrimidine-5-carbonitrile]
IC50 (human GST-DYRK1A): 0.301 to 1 µM | IC50 (human GST-CLK1): < 0.1 µM

SMILES: COc1cc(P2(=O)CCN(C3COC3)CC2)ccc1Nc1nc(NCC2CCC2)c2c(C#N)c[nH]c2n1 [Example 307, 4-((cyclo-butylmethyl)amino)-2-((2-methoxy-4-(1-(oxetan-3-yl)-4-oxido-1,4-azaphosphinan-4-yl)phenyl)amino)-7H-pyrrolo[2,3-d]pyrimidine-5-carbonitrile]
IC50 (human GST-DYRK1A): 0.301 to 1 µM | IC50 (human GST-CLK1): 0.101 to 0.3 µM

SMILES: COc1cc(P2(=O)CCN(C3CC3)CC2)ccc1Nc1nc(NC2CCOCC2)c2c(C#N)c[nH]c2n1 [Example 302, 2-((4-(1-cyclopropyl-4-oxido-1,4-azaphosphinan-4-yl)-2-methoxyphenyl)a-mino)-4-((tetrahydro-2H-pyran-4-yl)amino)-7H-pyrrolo[2,3-d]pyrimidine-5-carbonitrile]
IC50 (human GST-DYRK1A): 0.301 to 1 µM | IC50 (human GST-CLK1): 0.301 to 1 µM

SMILES: CCCCNc1nc(Nc2ccc(P(C)(C)=O)cc2OC)nc2[nH]cc(C#N)c12 [Example 275, 4-(butylamino)-2-((4-(dimethylphosphoryl)-2-methoxyphenyl)amino)-7H-pyrrolo[2,3-d]pyrimidine-5-carbonitrile]
IC50 (human GST-DYRK1A): 0.301 to 1 µM | IC50 (human GST-CLK1): 0.101 to 0.3 µM

SMILES: COc1cc(P2(=O)CCN(C3COC3)CC2)ccc1Nc1nc(NCC2CCCC2)c2c(C#N)c[nH]c2n1 [Example 309, 4-((cyclo-pentylmeth-yl)amino)-2-((2-methoxy-4-(1-(oxetan-3-yl)-4-oxido-1,4-azaphosphinan-4-yl)phenyl)amino)-7H-pyrrolo[2,3-d]pyrimidine-5-carbonitrile]
IC50 (human GST-DYRK1A): 0.301 to 1 µM | IC50 (human GST-CLK1): 0.301 to 1 µM

The next lines start with the values.

IC50 (human GST-DYRK1A): 0.301 to 1 µM | IC50 (human GST-CLK1): 0.101 to 0.3 µM
SMILES: CC[C@H](C)Nc1nc(Nc2ccc(P3(=O)CCN(C4COC4)CC3)cc2OC)nc2[nH]cc(C#N)c12 [Example 297, (S)-4-(sec-butylamino)-2-((2-methoxy-4-(1-(oxetan-3-yl)-4-oxido-1,4-azaphosphinan-4-yl)phenyl)amino)-7H-pyrrolo[2,3-d]pyrimidine-5-carbonitrile]

IC50 (human GST-DYRK1A): 0.301 to 1 µM | IC50 (human GST-CLK1): < 0.1 µM
SMILES: COc1cc(P2(=O)CCN(C3COC3)CC2)ccc1Nc1nc(N[C@H]2CCOC2)c2c(C#N)c[nH]c2n1 [Example 301, (S)-2-((2-methoxy-4-(1-(oxetan-3-yl)-4-oxido-1,4-azaphosphinan-4-yl)phenyl)amino)-4-((tetrahydrofuran-3-yl)amino)-7H-pyrrolo[2,3-d]pyrimidine-5-carbonitrile]

IC50 (human GST-DYRK1A): 0.301 to 1 µM | IC50 (human GST-CLK1): 0.301 to 1 µM
SMILES: CC[C@H](C)Nc1nc(Nc2ccc(S(=O)(=O)N3CCC(N4CCOCC4)CC3)cc2OC)nc2[nH]ccc12 [Example 17, (S)-N^4-(sec-butyl)-N^2-(2-methoxy-4-((4-morpholinopiperidin-1-yl)sulfonyl)phenyl)-7H-pyrrolo[2,3-d]pyrimidine-2,4-diamine]

IC50 (human GST-DYRK1A): 0.301 to 1 µM | IC50 (human GST-CLK1): 0.301 to 1 µM
SMILES: COc1cc(S(=O)(=O)N2CCC(N3CCOCC3)CC2)ccc1Nc1nc(N[C@H]2CCOC2)c2cc[nH]c2n1 [Example 29, (S)-N^2-(2-methoxy-4-((4-morpholinopiperidin-1-yl)sulfonyl)phenyl)-N^4-(tetrahydrofuran-3-yl)-7H-pyrrolo[2,3-d]pyrimidine-2,4-diamine]

IC50 (human GST-DYRK1A): 0.301 to 1 µM | IC50 (human GST-CLK1): 0.301 to 1 µM
SMILES: COc1cc(S(C)(=O)=O)ccc1Nc1nc(NCC2CCC2)c2c(C(F)(F)F)c[nH]c2n1 [Example 198, N^4-(cyclobutylmethyl)-N^2-(2-methoxy-4-(methylsulfonyl)phenyl)-5-(trifluoromethyl)-7H-pyrrolo[2,3-d]pyrimidine-2,4-diamine]

IC50 (human GST-DYRK1A): 0.301 to 1 µM | IC50 (human GST-CLK1): 0.301 to 1 µM
SMILES: COc1cc(P2(=O)CCN(C3CC3)CC2)ccc1Nc1nc(NCC2CC2)c2c(C#N)c[nH]c2n1 [Example 304, 2-((4-(1-cyclopropyl-4-oxido-1,4-azaphosphinan-4-yl)-2-methoxyphenyl)a-mino)-4-((cyclo-propylmeth-yl)amino)-7H-pyrrolo[2,3-d]pyrimidine-5-carbonitrile]

IC50 (human GST-DYRK1A): 0.101 to 0.3 µM | IC50 (human GST-CLK1): < 0.1 µM
SMILES: N#Cc1c[nH]c2nc(Nc3ccc(C(=O)N4CC(CO)(CO)C4)c4c3OCCO4)nc(N[C@@H]3CCOC3)c12 [Example 335, (R)-2-((8-(3,3-bis(hydroxy-methyl)azetidine-1-carbonyl)-2,3-dihydrobenzo[b] [1,4]dioxin-5-yl)amino)-4-((tetrahydrofuran-3-yl)amino)-7H-pyrrolo[2,3-d]pyrimidine-5-carbonitrile]

IC50 (human GST-DYRK1A): 0.101 to 0.3 µM | IC50 (human GST-CLK1): 0.301 to 1 µM
SMILES: O=C(c1ccc(Nc2nc(NCC3CCC3)c3c(C(F)(F)F)c[nH]c3n2)c2c1CCO2)N1CCC(N2CCOCC2)CC1 [Example 462, (7-((4-((cyclo-butylmethyl)amino)-5-(trifluoromethyl)-7H-pyrrolo[2,3-d]pyrimidin-2-yl)amino)-2,3-dihydrobenzo-furan-4-yl)(4-morpho-linopiperidin-1-yl)methanone]

IC50 (human GST-DYRK1A): 0.301 to 1 µM | IC50 (human GST-CLK1): 0.101 to 0.3 µM
SMILES: COc1cc(P2(=O)CCN(C3CC3)CC2)ccc1Nc1nc(NCCS(C)(=O)=O)c2c(C#N)c[nH]c2n1 [Example 310, 2-((4-(1-cycloproopyl-4-oxido-1,4-azaphosphinan-4-yl)-2-methoxyphenyl)a-mino)-4-((2-(methylsulfonyl)ethyl)amino)-7H-pyrrolo[2,3-d]pyrimidine-5-carbonitrile]

IC50 (human GST-DYRK1A): 0.101 to 0.3 µM | IC50 (human GST-CLK1): < 0.1 µM
SMILES: CC[C@@H](C)Nc1nc(Nc2ccc(P(C)(C)=O)cc2OC)nc2[nH]cc(C#N)c12 [Example 266, (R)-4-(sec-butylamino)-2-((4-(dimethylphosphoryl)-2-methoxyphenyl)amino)-7H-pyrrolo[2,3-d]pyrimidine-5-carbonitrile]

IC50 (human GST-DYRK1A): 0.101 to 0.3 µM | IC50 (human GST-CLK1): < 0.1 µM
SMILES: N#Cc1c[nH]c2nc(Nc3ccc(C(=O)N4CC(CO)(CO)C4)c4c3OCCO4)nc(NCC3CC3)c12 [Example 338, 2-((8-(3,3-bis (hydroxymethyl)azetidine-1-carbonyl)-2,3-dihydrobenzo [b][1,4]dioxin-5-yl)amino)-4-((cyclopropyl-meth-yl)amino)-7H-pyrrolo[2,3-d]pyrimidine-5-carbonitrile]

IC50 (human GST-DYRK1A): 0.301 to 1 µM | IC50 (human GST-CLK1): 0.301 to 1 µM
SMILES: O=C(c1ccc(Nc2nc(NCC3CCCC3)c3c(C(F)(F)F)c[nH]c3n2)c2c1OCCO2)N1CCOCC1 [Example 205, (8-((4-((cyclopentylmethyl)amino)-5-(trifluoromethyl)-7H-pyrrolo[2,3-d]pyrimidin-2-yl)amino)-2,3-dihydrobenzo[b][1,4]dioxin-5-yl)(morpholino)methanone]

IC50 (human GST-DYRK1A): 0.301 to 1 µM | IC50 (human GST-CLK1): 0.101 to 0.3 µM
SMILES: COc1cc(P(C)(C)=O)ccc1Nc1nc(NC(C)C)c2c(C(F)(F)F)c[nH]c2n1 [Example 371, (4-((4-(isopropylamino)-5-(trifluoromethyl)-7H-pyrrolo[2,3-d]pyrimidin-2-yl)amino)-3-methoxyphenyl) dimethyl phosphine oxide]
